Measured values: patent US20240279217A1, “Heterocyclic compounds for the treatment of tuberculosis” (TECNIMEDE - SOCIEDADE TÉCNICO-MEDICINAL, SA, priority 2021, published 2024)
pIC50: −log10 of the molar value. Values after ≈ are worked out from the molar mass of the structure shown. Where a name gives a salt, the structure may show the parent alone. Read-outs that look alike come from different tables or passages of the source.

Columns and labels:
HepG2 cell line = test: In vitro cytotoxicity assay (MTS tetrazolium reduction); type: cell-based; settings: HepG2, 48 h
Procedure: In an embodiment, in vitro cytotoxicity assay was carried out. In vitro cytotoxicity assay was performed in HepG2 cell line using a tetrazolium reduction assay for cell viability evaluation (MTS reduction as described by Cory A. et al (Cancer Commun. 1991, 3 (7), 207-212)). The assay was performed in 96-well plates for 48 h at 37° C. and 5% CO2 in incubation medium (low glucose DMEM with Glutamax, 10% FBS, 1% Pen/Strep and DMSO). Cells were exposed to 8 different compound concentrations in successive dilutions (usually, base 2), plus a positive control (a compound in a concentration known to decrease cell viability above 50%) and a negative control (incubation medium). Six replicate wells were assayed for each condition. Compound stock solutions were prepared in DMSO at 20 mM, whenever possible, filter sterilized, aliquoted and stored at −20° C. The maximum compound concentrations tested depend on its solubility in incubation medium, and on the maximum DMSO percentage allowable without loss of cell viability. At the end of the incubation period, tetrazolium reagent was added (CellTiter 96′ AQueous Solution from Promega); cells were incubated for another 3 hours in order to promote tetrazolium reduction to formazan by viable cells. The amount of soluble formazan produced was evaluated by 490 nm absorbance reading in a spectrophotometer plate reader. […] Whenever possible, IC50 was calculated as the concentration of compound that reduces cell viability by 50%.

[1] = test system: H37Rv M. tuberculosis (strain ATCC 25618); test: Mycobacterium tuberculosis susceptibility assay REMA (resazurin microtiter assay); type: cell-based; settings: for MIC: Mycobacterium tuberculosis, 144 h, read-out: REMA MIC; for REMA MIC: Table 2
[2] = MTB growth REMA, H37Rv, Middlebrook 7H9, 6 days at 37° C.
[3] = Homo sapiens, Table 1, cytotoxicity, MTS, read-out: IC50
[4] = Table 1, MTB growth REMA, H37Rv, Middlebrook 7H9, 6 days at 37° C.
[5] = Table 2, cytotoxicity, MTS, read-out: IC50

| SMILES | pIC50 (HepG2 cell line; Homo sapiens) | MIC [1] [µM] | pIC50 (HepG2 cell line; Table 2, cytotoxicity, MTS) | REMA MIC [1, 2] | pIC50 (HepG2 cell line; [3]) | MIC [1, 4] [µM] | pIC50 (HepG2 cell line; [5]) |
| --- | --- | --- | --- | --- | --- | --- | --- |
| COc1cccc2ccc(N3CCC(c4nc(-c5cccnc5)no4)CC3)nc12 [Compound 10, 5-(1-(8-methoxyquinolin-2-yl)piperidin-4-yl)-3-(pyridin-3-yl)-1,2,4-oxadiazole hydrochloride] | 4.00 to 4.30 | 15.6 to 31.5 | – | – | – | – | – |
| COc1cccc2ccc(N3CCC(c4nc(-c5ccc(C(F)(F)F)nc5)no4)CC3)nc12 [Compound 11, 5-(1-(8-methoxyquinolin-2-yl)piperidin-4-yl)-3-(6-(trifluoromethyl)pyridin-3-yl)-1,2,4-oxadiazole] | 4.30 to 4.70 | < 7.8 | – | – | – | – | – |
| COc1cccc2ccc(N3CCC(c4nc(-c5ccc(C(F)(F)F)cc5)no4)CC3)nc12 [Compound 5, 5-(1-(8-methoxyquinolin-2-yl)piperidin-4-yl)-3-(4-(trifluoromethyl)phenyl)-1,2,4-oxadiazole hydrochloride] | 4.00 to 4.30 | 7.8 to 15.6 | – | – | – | – | – |
| COc1cccc2ccc(N3CCC(c4nc(-c5ccc(N6CCCC6)nc5)no4)CC3)nc12 [Compound 50, 5-(1-(8-methoxyquinolin-2-yl)piperidin-4-yl)-3-(6-(pyrrolidin-1-yl)pyridin-3-yl)-1,2,4-oxadiazole hydrochloride] | < 4.00 | 7.8 to 15.6 | < 4.00 | +++ (7.8-15.6) | – | – | – |
| Clc1cccc2ccc(N3CCC(c4nc(-c5cccnc5)no4)CC3)nc12 [Compound 18, 5-(1-(8-chloroquinolin-2-yl)piperidin-4-yl)-3-(pyridin-3-yl)-1,2,4-oxadiazole hydrochloride] | 4.00 to 4.30 | 15.6 to 31.5 | – | – | – | – | – |
| COc1cccc2ccc(N3CCC(c4nc(-c5ccc(N6CCCCC6)nc5)no4)CC3)nc12 [Compound 33, 5-(1-(8-methoxyquinolin-2-yl)piperidin-4-yl)-3-(6-(piperidin-1-yl)pyridin-3-yl)-1,2,4-oxadiazole] | < 4.00 | < 7.8 | < 4.00 | ++++ (<7.8) | – | – | – |
| COc1cccc2ccc(N3CCC(c4nc(-c5ccc(NCCO)nc5)no4)CC3)nc12 [Compound 35, 2-((5-(5-(1-(8-methoxyquinolin-2-yl)piperidin-4-yl)-1,2,4-oxadiazol-3-yl)pyridin-2-yl)amino)ethan-1-ol hydrochloride] | < 4.00 | 15.6 to 31.5 | – | – | – | – | – |
| COc1cccc2ccc(N3CCC(c4nc(-c5ccc(N6CCNCC6)nc5)no4)CC3)nc12 [Compound 34, 5-(1-(8-methoxyquinolin-2-yl)piperidin-4-yl)-3-(6-(piperazin-1-yl)pyridin-3-yl)-1,2,4-oxadiazole] | – | – | – | – | > 4.70 | 15.6 to 31.5 (≈ 7.36 to 14.9 µg/mL) | – |
| c1cncc(-c2noc(C3CCN(c4ccc5cc(-c6ccncc6)ccc5n4)CC3)n2)c1 [Compound 27, 3-(pyridin-3-yl)-5-(1-(6-(pyridin-4-yl)quinolin-2-yl)piperidin-4-yl)-1,2,4-oxadiazole] | – | – | – | ++++ (<7.8) | < 4.00 | < 7.8 | < 4.00 |
| COc1ccc2nc(N3CCC(c4nc(-c5cccnc5)no4)CC3)ccc2c1 [Compound 21, 5-(1-(6-methoxyquinolin-2-yl)piperidin-4-yl)-3-(pyridin-3-yl)-1,2,4-oxadiazole] | – | – | – | ++++ (<7.8) | < 4.00 | < 7.8 | < 4.00 |
| COc1cccc2ccc(N3CCC(c4nc(-c5ccc(O)cc5)no4)CC3)nc12 [Compound 24, 4-(5-(1-(8-methoxyquinolin-2-yl)piperidin-4-yl)-1,2,4-oxadiazol-3-yl)phenol] | – | – | – | +++ (7.8-15.6) | < 4.00 | 7.8 to 15.6 (≈ 3.14 to 6.28 µg/mL) | < 4.00 |
| COc1cccc2ccc(N3CCC(c4nc(-c5cccc(C(F)(F)F)c5)no4)CC3)nc12 [Compound 7, 5-(1-(8-methoxyquinolin-2-yl)piperidin-4-yl)-3-(3-(trifluoromethyl)phenyl)-1,2,4-oxadiazole] | < 4.00 | 15.6 to 31.5 (≈ 7.09 to 14.3 µg/mL) | – | – | – | – | – |
| COc1cccc2ccc(N3CCC(c4nc(-c5ccc(Cl)nc5)no4)CC3)nc12 [Compound 31, 3-(6-chloropyridin-3-yl)-5-(1-(8-methoxyquinolin-2-yl)piperidin-4-yl)-1,2,4-oxadiazole hydrochloride] | 4.30 to 4.70 | 15.6 to 31.5 | – | – | – | – | – |
| COc1cc(OC)cc(-c2noc(C3CCN(c4ccc5cccc(OC)c5n4)CC3)n2)c1 [Compound 6, 3-(3,5-dimethoxyphenyl)-5-(1-(8-methoxyquinolin-2-yl)piperidin-4-yl)-1,2,4-oxadiazole] | < 4.00 | 7.8 to 15.6 (≈ 3.48 to 6.97 µg/mL) | < 4.00 | +++ (7.8-15.6) | – | – | – |
